Assay results published in PMC3942692, “Mitochondrial FAD-linked Glycerol-3-phosphate Dehydrogenase: A Target for Cancer Therapeutics” (Pharmaceuticals, 2014).

Molecular target: T1, GPD2 (mitochondrial glycerol-3-phosphate dehydrogenase) (Homo sapiens, UniProt P43304)
T1 construct: aa 43-727 (mitochondrial transit peptide removed), N-terminal Strep-tag II, expressed in E. coli GJ1158, Strep-Tactin purified; cDNA from PC-3 cells; EC 1.1.5.3
T1 sequence (P43304 43-727): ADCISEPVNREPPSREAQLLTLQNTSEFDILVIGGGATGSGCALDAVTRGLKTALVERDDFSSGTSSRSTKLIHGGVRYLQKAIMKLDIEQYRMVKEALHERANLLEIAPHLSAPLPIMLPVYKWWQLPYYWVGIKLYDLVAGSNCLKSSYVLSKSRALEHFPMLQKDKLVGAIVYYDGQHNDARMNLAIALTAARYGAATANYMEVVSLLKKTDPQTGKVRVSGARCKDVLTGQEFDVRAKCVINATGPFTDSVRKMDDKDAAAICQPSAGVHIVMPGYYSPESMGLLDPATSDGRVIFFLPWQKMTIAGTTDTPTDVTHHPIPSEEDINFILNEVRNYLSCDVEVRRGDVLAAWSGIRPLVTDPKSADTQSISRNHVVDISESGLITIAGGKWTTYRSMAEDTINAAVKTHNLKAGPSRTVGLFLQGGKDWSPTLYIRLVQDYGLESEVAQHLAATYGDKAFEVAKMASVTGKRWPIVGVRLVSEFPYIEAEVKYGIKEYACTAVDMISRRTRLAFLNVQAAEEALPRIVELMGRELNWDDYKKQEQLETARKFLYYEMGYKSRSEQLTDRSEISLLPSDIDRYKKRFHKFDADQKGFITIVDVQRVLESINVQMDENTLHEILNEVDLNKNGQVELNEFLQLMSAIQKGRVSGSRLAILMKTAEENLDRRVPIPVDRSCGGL
Assay: GPD2 oxidoreductase, resazurin reduction fluorescence
Assay type: biochemical
Settings: 30 mM glycerol-3-phosphate
Description: GPD2 oxidoreductase, resazurin reduction fluorescence on GPD2 (mitochondrial glycerol-3-phosphate dehydrogenase) | six GPD2 activity inhibitors selected for follow-up analysis are shown

## RH02211
  EC50: 28 ± 13.9 µM

## CCOC(=O)c1ccc(-n2sccc2=O)cc1 [KM04416]
  EC50: 1.23 ± 0.54 µM
